Laboratory results taken from patent publication US20070212428A1, “METHODS AND COMPOSITIONS FOR TREATING MOOD DISORDER” (MOOD MANAGEMENT SCIENCES, INC., priority 2004, published 2007).
Where a name gives a salt, the structure may show the parent alone. Read-outs that look alike come from different tables or passages of the source.

Tests used:
[1] = cited from earlier work; for time to peak plasma concentration: after oral dosing
Dysthymia [2] = assay: Example 10: case, dysthymia with general anxiety disorder; details: earlier treatment with 40 mg
[3] = tested on: muscarinic, histaminergic, or a-l adrenergic receptors; details: in vitro; cited from earlier work
[4] = cited from earlier work
[5] = tested on: norepinephrine neuronal reuptake; details: cited from earlier work
[6] = tested on: dopamine neuronal reuptake; details: cited from earlier work
[7] = tested on: neuronal serotonin reuptake; details: cited from earlier work
Dysthymia [8] = assay: Example 12: method for treating Dysthymia (a person); format: in vivo, human; details: 10 years prior; 60 mg fluvoxamine, 40 mg paroxetine
monoamine oxidase = details: cited from earlier work
[9] = co-administered with venlafaxine
[10] = 30 mg oral dose, over a 10 day period

CN(C)CCCC1(c2ccc(F)cc2)OCc2cc(C#N)ccc21 (racemic) [citalopram, (±)-1-[3-(dimethylamino)propyl]-1-(4-fluorophenyl)-1,3-dihydro-5-isobenzofuran carbonitrile, hydrobromide]
time to peak plasma concentration [1]: four | time to steady state plasma concentrations ([1]; daily dosing): a week | increase of half life in elderly patients ([1]; elderly patients): 23-50% | elimination half-life ([1]; plasma): about 35 hours

CNCCC(Oc1ccc(C(F)(F)F)cc1)c1ccccc1.Cl (racemic) [fluoxetine, (±)-N-methyl-3-phenyl-[(α,α,α-trifluoro-p-tolyl)oxyl]propylamine hydrochloride]
half life ([1]; following acute administration): 24 to 72 h | effect on depressive symptoms (Dysthymia [2]): decreased depressive symptoms | adverse effect (Dysthymia [2]; subsequently discontinued): “dulled” the patient cognitively

COc1ccc(C(CN(C)C)C2(O)CCCCC2)cc1.Cl (racemic) [venlafaxine, (R/S)-1-[2-(dimethylamino)-1-(4-methoxyphenyl)ethyl] cyclohexanol hydrochloride]
oral absorption (in words) ([1]; oral administration): well absorbed | elimination half-life ([1]; plasma): 3 to 7 h | fraction renally excreted within 48 hours ([1]; single dose): 87% | affinity [3]: not significant affinity | steady-state pharmacokinetics ([4]; venlafaxine 150 mg/day with a single 600 mg oral dose of lithium, 12 healthy males): unaffected | effect on norepinephrine reuptake (in words) [5]: potent inhibitors | effect on dopamine reuptake (in words) [6]: weak inhibitors

NC(=O)N1c2ccccc2CC(O)c2ccccc21 (stereo not drawn) [MHD]
elimination half-life ([1]; human, in vivo): about 9 hours

CN(C)CC(c1ccc(O)cc1)C1(O)CCCCC1 (stereo not drawn) [ODV, O-desmethylvenlafaxine]
elimination half-life ([1]; human, in vivo): 9 to 13 h | affinity [3]: not significant affinity | inhibition of serotonin reuptake (in words) [7]: potent inhibitors | effect on norepinephrine reuptake (in words) [5]: potent inhibitors | effect on dopamine reuptake (in words) [6]: weak inhibitors

Clc1ccc2c(c1)C(N1CCNCC1)=Nc1ccccc1O2 [amoxapine, 2-Chloro-11-(1-piperazinyl)dibenz-[b,f][1,4]oxazepine]
time to peak plasma concentration [1]: approximately 90 minutes | oral absorption (in words) ([1]; oral administration): absorbed rapidly

CN(C)CCCN1c2ccccc2Sc2ccc(Cl)cc21 [chlorpromazine, 10-(3-dimethylaminopropyl)-2-chlorphenothiazine]
oral absorption (in words) ([1]; oral administration): readily absorbed | elimination half-life ([1]; plasma): approximately 30 hours

O=c1ccc2ccc(OCCCCN3CCN(c4cccc(Cl)c4Cl)CC3)cc2[nH]1 [dehydro-aripiprazole]
pharmacokinetics ([4]; lithium (1200-1800 mg/day) for 21 days with aripiprazole (30 mg/day)): did not result in clinically significant changes

COCCCC/C(=N\OCCN)c1ccc(C(F)(F)F)cc1 [fluvoxamine]
outcome of prior antidepressant trials (Dysthymia [8]): unsuccessfully

O=C(CCCN1CCC(O)(c2ccc(Cl)cc2)CC1)c1ccc(F)cc1 [haloperidol, 4-[4-(p-chlorophenyl)-4-hydroxypiperidino]-4′-fluorobutyrophenone]
time to peak plasma level ([1]; after i.m. injection): about 20 minutes | half life [4, 9]: unchanged | increase of peak plasma concentration (Cmax) [4, 9]: 88% | increase in the area under the plasma concentration curve ([4]; single 2 mg dose of haloperidol with venlafaxine 150 mg/day): 70%

CC[C@@H](C(N)=O)N1CCCC1=O [levetiracetam, (−)-(S)-α-ethyl-2-oxo-1-pyrrolidine acetamide]
time to peak plasma concentration [1]: about an hour | reduction of clearance ([1]; moderate renal impairment): 50% | oral absorption (in words) ([1]; oral administration): rapidly and almost completely absorbed | elimination half-life ([1]; plasma): approximately 7 hours | reduction of clearance ([1]; severe renal impairment): 60%

[Li] [lithium]
CSF lithium level at equilibration relative to the plasma concentration ([1]; human, in vivo): approximately half | fraction eliminated with the feces ([1]; human, in vivo): less than 1% | fraction of a single dose eliminated in urine ([1]; human, in vivo): Approximately 95% | fraction of a single dose excreted in 24 hours ([1]; human, in vivo): About 50% | fraction of the filtered lithium reabsorbed in the tubules ([1]; human, in vivo): 80% | oral absorption (in words) ([1]; oral administration): rapidly absorbed | time to steady state plasma concentrations ([1]; repeated dosing): five to six | AUC and peak plasma concentrations of lithium ([4]; co-administered with risperidone): unaffected | kinetics of lithium ([4]; multiple doses of olanzapine (10 mg for 8 days)): did not influence | steady state kinetics of lithium ([4]; valproate (500 mg BID) with lithium carbonate (300 mg TID), normal male volunteers): not effect | steady-state pharmacokinetic parameters of lithium ([4]; with quetiapine (250 mg TID)): no effect | steady-state pharmacokinetics of lithium ([4]; with venlafaxine): unaffected | steady state level and renal clearance of lithium ([4]; ziprasidone (40 mg BID) with lithium (450 mg BID for 7 days)): not affected

CN1CCN(C2=Nc3ccccc3Oc3ccc(Cl)cc32)CC1 [loxapine succinate, 2-Chloro-11-(4-methyl-1-piperazinyl)dibenz[b,f][1,4]oxazepine]
oral absorption (in words) ([1]; oral administration): virtually complete | time of excretion ([1]; oral administration): mainly in the first 24 hours

CNCCCC12CCC(c3ccccc31)c1ccccc12 [maprotiline, N-Methyl-9,10-ethanoanthracene-9(10H)-propanamine]
oral absorption (in words) ([1]; oral administration): completely absorbed

NC(=O)C[S+]([O-])C(c1ccccc1)c1ccccc1 (stereo not drawn) [modafinil, 2-[(diphenylmethyl)sulfinyl]acetamide]
time to peak plasma concentration [1]: 2 to 4 h | oral absorption (in words) ([1]; oral administration): rapid

CCc1nn(CCCN2CCN(c3cccc(Cl)c3)CC2)c(=O)n1CCOc1ccccc1 [nefazodone, 2-[3-[4-(3-chlorophenyl)-1-piperazinyl]propyl]-5-ethyl-2,4-dihydro-4-(2-phenoxyethyl)-3H-,1,2,4-triazo-3-one monohydrochloride]
elimination half-life ([1]; plasma): 2 to 4 h

Fc1ccc([C@@H]2CCNC[C@H]2COc2ccc3c(c2)OCO3)cc1 [paroxetine, (−)-trans-4R-(4′-fluorophenyl)-3S-[(3′,4′-methylenedioxyphenloxy)methyl]piperidine hydrochloride hemihydrate]
fraction of dose renally excreted [1, 10]: Approximately 64% | fraction of dose renally excreted as metabolites [1, 10]: 62% | fraction of dose renally excreted as the parent compound [1, 10]: 2% | fraction of dose excreted in the feces ([1]; 30 mg oral dose): 36% | oral absorption (in words) ([1]; oral administration): completely absorbed | time to steady state plasma concentrations ([1]; repeated dosing): approximately 10 days | outcome of prior antidepressant trials (Dysthymia [8]): unsuccessfully | effect on norepinephrine reuptake (in words) [5]: only very weak effects | effect on dopamine reuptake (in words) [6]: only very weak effects

NNCCc1ccccc1 [phenelzine sulfate, (2-phenethyl)hydrazine]
time to peak plasma concentration [1]: 0.717 h | elimination half-life ([1]; plasma): 11.6 h | inhibition of monoamine oxidase (monoamine oxidase): potent inhibitor

CSc1ccc2c(c1)N(CCC1CCCCN1C)c1ccccc1S2 (stereo not drawn) [thioridazine, 2-methylmercapto-10-[2-(N-methyl-2-piperidyl)ethyl]phenothiazine]
elimination half-life ([1]; plasma): approximately 10 hours

CC1(C)O[C@@H]2[C@@H](CO[C@@]3(COS(N)(=O)=O)OC(C)(C)O[C@@H]23)O1 [topiramate, 2,3:4,5-Di-O-isopropylidene-β-D-fructopyranose sulfamate]
time to peak plasma concentration [1]: approximately 2 hours | reduction of clearance ([1]; moderate renal impairment): 42% | oral absorption (in words) ([1]; oral administration): rapid | time to steady state plasma concentrations ([1]; repeated dosing): about 4 days | reduction of clearance ([1]; severe renal impairment): 54%

O=c1n(CCCN2CCN(c3cccc(Cl)c3)CC2)nc2ccccn12 [trazodone, 2-[3-[4-(3-chlorophenyl)-1-piperazinyl]propyl]-1,2,4-triazolo[4,3-a]pyridin-3(2H)-one]
time to peak plasma levels ([1]; taken with food): two

CCCC(CCC)C(=O)O [valproate, sodium hydrogen bis(2-propylpentanoate)]
effect on each drug's metabolism ([4]; olanzapine co-administered with valproate): little effect

NS(=O)(=O)Cc1noc2ccccc12 [zonisamide, 1,2-benzisoxazole-3-methanesulfonamide]
time to peak plasma concentration [1]: 2 to 6 h | elimination half-life ([1]; plasma): about 63 hours | elimination half-life in RBC ([1]; red blood cells): approximately 105 hours | time to steady state plasma concentrations ([1]; repeated dosing): ≤ 14 days
